Experimental findings from article PMC7672604, “Design, Synthesis, Molecular Docking, Antiapoptotic and Caspase-3 Inhibition of New 1,2,3-Triazole/Bis-2(1H)-Quinolinone Hybrids” (Molecules, 2020) are described below.

Values joined by “and” are separate entries in the source; they are usually repeats but may differ in a detail not shown here. Identical values can stand only once.

The subject of this assay is cytochrome C. Nature of the assay: Cytochrome C ELISA in SR human cell line. It is filed as cell-based. Here is the method: The 1,2,3-triazole/biquinolinone derivative 6c was evaluated for cytochrome C against the SR human cell line and the results are listed in Table 4.
Cells were collected from American Type Culture Collection to be grown in […] containing 10% fetal bovine serum at 37 °C, stimulated with the compounds to be tested for cytochrome C using Cytochrome C Human ELISA Kit (ab119521—Cytochrome C Human ELISA Kit, Vaccera institute, Egypt) (See Supplementary Materials). […]
• Equilibrate all materials and prepared reagents to room temperature prior to use.
• It is recommended to assay all standards, controls and samples in duplicate.
13.1. Prepare all reagents, working standards, and samples as directed in the previous sections.
Determine the number of microplate strips required to test the desired number of samples plus […]
appropriate number of wells needed for running blanks and standards. Predilute samples before […]
starting the test procedure with one-part sample to one-part 1X Assay Buffer.
13.2. Wash the microplate twice with approximately 400 μL 1X Wash Buffer per well with […]
thorough aspiration of microplate contents between washes. Allow the 1X Wash Buffer to remain in […]
Note: The color development on the plate should be monitored and the substrate reaction stopped […]
the stop solution when the highest standard has developed a dark blue color. Alternatively, the color development can be monitored by the ELISA reader at 620 nm. […]
Note: It is important that the Stop Solution is mixed quickly and uniformly throughout the microplate to completely inactivate the enzyme. Results must be read immediately after the Stop Solution is added or within one hour if the microplate strips are stored at 2 - 8°C in the dark.
13.15. Read absorbance of each microplate on a spectrophotometer using 450 nm as the primary wavelength (optionally 620 nm as the reference wavelength; 610 nm to 650 nm is acceptable).
Blank the plate reader according to the manufacturer's instructions by using the blank wells.
Determine the absorbance of both the samples and the standards. […]

Regarding `CC(=O)N[C@@H](CS)C(=O)O` [NAC, N-acetylcysteine, reference compound], the “Cyt C Conc” value is on record as 0.24 ± 0.019 ng/mL. Under “down-expression relative to control”, the “Cyt C Fold Change” value was determined as 4.13 fold. Consider `COc1ccc2[nH]c(=O)cc(-n3cc(COc4cc(=O)[nH]c5ccccc45)nn3)c2c1` [6c, 6-Methoxy-4-(4-(((2-oxo-1,2-dihydroquinolin-4-yl)oxy)methyl)-1H-1,2,3-triazol-1-yl)-quinolin-2(1H)-one], for which the “Cyt C Conc” value was 0.28 ng/mL and 0.28 ± 0.011 ng/mL.
